Measurements taken from patent publication US7018801B2, “Selection of peptides with antibody-like properties” (Board of Regents, The University of Texas System, priority 2000, dated 2006).
Peptide text beside a SMILES is read from it.

Key:
[1] = target: ICS (pro-IL-1β-derived epitope, 14 mer) (Homo sapiens, UniProt P01584, A117G); assay: Measured KD of the LEPB-ICS complex; format: binding
From the text: Finally, the most rigorous tests for peptide-peptide interaction involve spectroscopic assays. These experiments provide quantitative data regarding the affinity of the LEP for the epitope target. For example, fluorescence polarization (Heyduk et al., 1996) can be employed. In this experiment, one of the peptides is synthesized with a covalently coupled fluorescein molecule. A low concentration of this species (usually 10^−8 M to 10^−10 M) is titrated with increasing amounts of a fusion protein containing the partner peptide. The increase in the polarization of the fluorescence as a result of binding of the low molecular weight fluorescein-peptide conjugate to the high molecular weight fusion protein is monitored.
The affinities of the isolated peptides for their epitope targets can be determined by a number of methods. These include fusion of one or both of the interacting peptides to heterologous proteins, followed by the binding of one of the fusions to an affinity resin. The affinity of the partner fusion protein for this resin is then determined. Another common technique is surface plasmon resonance, in which one of the interacting peptides or fusion proteins is immobilized on an appropriately modified gold surface, and the on and off rates of the partner peptide are measured using the commercially available BIAcore instrument or an equivalent. […]

[2] = target: T1, GST fusion protein containing the target epitope (Homo sapiens, UniProt P01584, A117G); assay: Far Western blot of DBD-LEP fusions probed with GST-epitope fusion protein; format: binding; details: extract of phage-resistant cells expressing DBD-LEP fusion; anti-GST antibody detection
T1 construct: made in house
Description: FIG. 5—“Far Western” blot protocol to eliminate false positives. An extract is prepared from phage-resistant cells that express the DBD-LEP fusion. This is electrophoresed through a denaturing gel, then blotted onto a membrane. This is probed with a GST fusion protein containing the target epitope, followed by labeled anti-GST antibody to visualize the site(s) of binding of the GST-peptide fusion protein.
The putative epitope-binding LEPs that survive the tests described above are then tested biochemically for epitope binding. […] This is done by expressing a GST fusion protein containing the target peptide at the C-terminus. This protein is then employed as a probe in a Far-Western blot experiment (FIG. 5). Crude extracts from cells that express the Repressor DBD-LEP fusion are electrophoresed through a denaturing gel and blotted onto a suitable surface, such a nitrocellulose. The blot is then probed with the GST-epitope fusion protein, followed by anti-GST antibody and finally an HRP-conjugated secondary to visualize the binding events. Lanes in which the band corresponding to the Repressor DBD-LEP is bound by the GST-epitope fusion protein are considered true hits.

Compound `CC(C)C[C@H](NC(=O)[C@H](CCC(=O)O)NC(=O)[C@H](C)NC(=O)[C@H](CCC(=O)O)NC(=O)[C@H](CCCCN)NC(=O)[C@H](CCCNC(=N)N)NC(=O)[C@H](C)NC(=O)[C@@H](N)CCCCN)C(=O)N[C@@H](C)C(=O)N[C@@H](C)C(=O)N[C@@H](C)C(=O)N[C@H](C(=O)N[C@@H](C)C(=O)N[C@@H](CCC(=O)O)C(=O)N[C@@H](CCC(N)=O)C(=O)O)[C@@H](C)O` [LEPB] (H-KARKEAELAAATAEQ-OH) has a Kd [1] of 2 µM.
In the case of “PCHLNCSLQTLSPTRTTPRKHCKHCFKTLSEKMKWN [LEPD]”, the “Far Western blot signal” value [2] is reported as “weak or unobservable signals”.
